# Laboratory results taken from ChEMBL document CHEMBL5137080, “Discovery of Novel 7-Hydroxy-5-oxo-4,5-dihydrothieno[3,2-b]pyridine-6-carboxamide Derivatives with Potent and Selective Antifungal Activity against Cryptococcus Species” (J Med Chem, 2022).
# Columns and labels:
# [1] = system: Cryptococcus gattii species complex; assay: Antifungal activity against Cryptococcus gattii E566 assessed as fungal growth inhibition incubated for 72 hrs in presence of P163-0892 by broth microdilution method; type: functional
# [Candida] auris = Antifungal activity against Candida auris CBS 12372 assessed as fungal growth inhibition incubated for 48 hrs in presence of P163-0892 by broth microdilution method; type: functional; settings: Candidozyma auris
# Pichia kudriavzevii = assay: Antifungal activity against Candida krusei ATCC2340 assessed as fungal growth inhibition incubated for 48 hrs in presence of P163-0892 by broth microdilution method; type: functional
# Candida tropicalis = assay: Antifungal activity against Candida tropicalis ATCC20026 assessed as fungal growth inhibition incubated for 48 hrs in presence of P163-0892 by broth microdilution method; type: functional
# Cryptococcus neoformans [2] = assay: Antifungal activity against Cryptococcus neoformans clinical isolate HN1 assessed as fungal growth inhibition incubated for 72 hrs in presence of P163-0892 by broth microdilution method; type: functional
# Cryptococcus neoformans [3] = assay: Antifungal activity against Cryptococcus neoformans clinical isolate BJ3 assessed as fungal growth inhibition incubated for 72 hrs in presence of P163-0892 by broth microdilution method; type: functional
# Cryptococcus neoformans [4] = assay: Antifungal activity against Cryptococcus neoformans clinical isolate SH68 assessed as fungal growth inhibition incubated for 72 hrs in presence of P163-0892 by broth microdilution method; type: functional
# Cryptococcus neoformans [5] = assay: Antifungal activity against Cryptococcus neoformans clinical isolate 444 assessed as fungal growth inhibition incubated for 72 hrs in presence of P163-0892 by broth microdilution method; type: functional
# [6] = system: Cryptococcus gattii species complex; assay: Antifungal activity against Cryptococcus gattii clinical isolate SCZ20031 assessed as fungal growth inhibition incubated for 72 hrs in presence of P163-0892 by broth microdilution method; type: functional
# Cryptococcus gattii [7] = assay: Synergistic antifungal activity against Cryptococcus gattii WM179 assessed as fractional inhibitory concentration index incubated for 72 hrs in presence of P163-0892 by broth microdilution method; type: functional, Cryptococcus gattii species complex
# Cryptococcus neoformans [8] = assay: Synergistic antifungal activity against Cryptococcus neoformans clinical isolate 56992 assessed as fractional inhibitory concentration index incubated for 72 hrs in presence of P163-0892 by broth microdilution method; type: functional
# Cryptococcus neoformans [9] = assay: Synergistic antifungal activity against Cryptococcus neoformans clinical isolate HN1 assessed as fractional inhibitory concentration index incubated for 72 hrs in presence of P163-0892 by broth microdilution method; type: functional
# Cryptococcus neoformans [10] = assay: Synergistic antifungal activity against Cryptococcus neoformans clinical isolate HN15 assessed as fractional inhibitory concentration index incubated for 72 hrs in presence of P163-0892 by broth microdilution method; type: functional
# Cryptococcus neoformans [11] = assay: Synergistic antifungal activity against Cryptococcus neoformans clinical isolate HN20 assessed as fractional inhibitory concentration index incubated for 72 hrs in presence of P163-0892 by broth microdilution method; type: functional
# Cryptococcus neoformans [12] = assay: Synergistic antifungal activity against Cryptococcus neoformans clinical isolate 443 assessed as fractional inhibitory concentration index incubated for 72 hrs in presence of P163-0892 by broth microdilution method; type: functional
# Cryptococcus neoformans [13] = assay: Synergistic antifungal activity against Cryptococcus neoformans clinical isolate 445 assessed as fractional inhibitory concentration index incubated for 72 hrs in presence of P163-0892 by broth microdilution method; type: functional
# [14] = system: Cryptococcus gattii species complex; assay: Synergistic antifungal activity against Cryptococcus gattii clinical isolate SCZ20024 assessed as fractional inhibitory concentration index incubated for 72 hrs in presence of P163-0892 by broth microdilution method; type: functional
# Cryptococcus neoformans [15] = assay: Antifungal activity against Cryptococcus neoformans H99 infected in Wax moth larvae assessed as reduction on fungal burden at 10 mg/kg measured after 9 days in presence of P163-0892 by 10 fold serial dilution method; type: functional; settings: time 9 day
# Cryptococcus neoformans [16] = assay: Antifungal activity against Cryptococcus neoformans H99 infected in Wax moth larvae assessed as survival rate at 10 mg/kg measured after 9 days in presence of P163-0892 by Kaplan-Meier method; type: functional; settings: H99, 216 h, time 9 day
# [17] = system: Cryptococcus deuterogattii; assay: Antifungal activity against Cryptococcus gattii WM178 infected in Wax moth larvae assessed as survival rate at 10 mg/kg measured after 9 days in presence of P163-0892 by Kaplan-Meier method; type: functional, Cryptococcus gattii species complex; settings: WM178, 216 h, time 9 day
# Cryptococcus gattii [18] = assay: Antifungal activity against Cryptococcus gattii WM179 assessed as fungal growth inhibition incubated for 72 hrs in presence of Fluconazole by broth microdilution method; type: functional, Cryptococcus gattii species complex
# Cryptococcus neoformans [19] = assay: Antifungal activity against Cryptococcus neoformans clinical isolate 56992 assessed as fungal growth inhibition incubated for 72 hrs in presence of Fluconazole by broth microdilution method; type: functional
# Cryptococcus neoformans [20] = assay: Antifungal activity against Cryptococcus neoformans clinical isolate HN2-40 assessed as fungal growth inhibition incubated for 72 hrs in presence of Fluconazole by broth microdilution method; type: functional
# Cryptococcus neoformans [21] = assay: Antifungal activity against Cryptococcus neoformans clinical isolate HN15 assessed as fungal growth inhibition incubated for 72 hrs in presence of Fluconazole by broth microdilution method; type: functional
# Cryptococcus neoformans [22] = assay: Antifungal activity against Cryptococcus neoformans clinical isolate SH68 assessed as fungal growth inhibition incubated for 72 hrs in presence of Fluconazole by broth microdilution method; type: functional
# Cryptococcus neoformans [23] = assay: Antifungal activity against Cryptococcus neoformans clinical isolate 444 assessed as fungal growth inhibition incubated for 72 hrs in presence of Fluconazole by broth microdilution method; type: functional
# Cryptococcus neoformans [24] = assay: Antifungal activity against Cryptococcus neoformans clinical isolate 445 assessed as fungal growth inhibition incubated for 72 hrs in presence of Fluconazole by broth microdilution method; type: functional
# [25] = system: Cryptococcus gattii species complex; assay: Antifungal activity against Cryptococcus gattii clinical isolate SCZ20031 assessed as fungal growth inhibition incubated for 72 hrs in presence of Fluconazole by broth microdilution method; type: functional
# Cryptococcus neoformans [26] = assay: Synergistic antifungal activity against Cryptococcus neoformans H99 assessed as fractional inhibitory concentration index incubated for 72 hrs in presence of Fluconazole by broth microdilution method; type: functional
# [27] = system: Cryptococcus gattii species complex; assay: Synergistic antifungal activity against Cryptococcus gattii E566 assessed as fractional inhibitory concentration index incubated for 72 hrs in presence of Fluconazole by broth microdilution method; type: functional
# [28] = system: Cryptococcus deuterogattii; assay: Synergistic antifungal activity against Cryptococcus gattii WM178 assessed as fractional inhibitory concentration index incubated for 72 hrs in presence of Fluconazole by broth microdilution method; type: functional, Cryptococcus gattii species complex
# Cryptococcus neoformans [29] = assay: Synergistic antifungal activity against Cryptococcus neoformans clinical isolate HN15 assessed as fractional inhibitory concentration index incubated for 72 hrs in presence of Fluconazole by broth microdilution method; type: functional
# [30] = system: Cryptococcus gattii species complex; assay: Synergistic antifungal activity against Cryptococcus gattii clinical isolate SCZ20024 assessed as fractional inhibitory concentration index incubated for 72 hrs in presence of Fluconazole by broth microdilution method; type: functional
# Cryptococcus neoformans [31] = assay: Antifungal activity against Cryptococcus neoformans H99 assessed as reduction on fungal growth at 2 ug/ml incubated for 48 hrs by plate reader assay; type: functional; design: scale not given: the % may be the effect or the level left; settings: dose 2 µg/ml
# [32] = system: Cryptococcus deuterogattii; assay: Antifungal activity against Cryptococcus gattii WM178 infected in Wax moth larvae assessed as survival rate at 10 mg/kg measured after 9 days in presence of Fluconazole by Kaplan-Meier method; type: functional, Cryptococcus gattii species complex; settings: WM178, 216 h, time 9 day
# [33] = Volume of distribution at steady state in Sprague-Dawley rat at 2 mg/kg,iv by LC-MS/MS analysis; type: ADME, organism-based; settings: in vivo
# [34] = Tmax in Sprague-Dawley rat at 5 mg/kg,po by LC-MS/MS analysis; type: ADME, organism-based; settings: in vivo
# [35] = Selectivity index, ratio of IC50 for human Caco-2 to MIC for antifungal activity against Cryptococcus neoformans; type: toxicity; settings: Caco-2 cells, read-out: Selectivity Index
compound,measurement,setting,value
OC(Cn1cncn1)(Cn1cncn1)c1ccc(F)cc1F [FLUCONAZOLE],MIC,[1],0.5 µg/mL
same,MIC,[Candida] auris,> 64 µg/mL
same,MIC,Pichia kudriavzevii,32 µg/mL
same,MIC,Candida tropicalis,1 µg/mL
same,MIC,Cryptococcus neoformans [2],0.125 µg/mL
same,MIC,Cryptococcus neoformans [3],0.25 µg/mL
same,MIC,Cryptococcus neoformans [4],1 µg/mL
same,MIC,Cryptococcus neoformans [5],0.5 µg/mL
same,MIC,[6],1 µg/mL
same,fractional inhibitory concentration index (FICI),Cryptococcus gattii [7],0.25
same,fractional inhibitory concentration index (FICI),Cryptococcus neoformans [8],0.25
same,fractional inhibitory concentration index (FICI),Cryptococcus neoformans [9],0.125
same,fractional inhibitory concentration index (FICI),Cryptococcus neoformans [10],0.313
same,fractional inhibitory concentration index (FICI),Cryptococcus neoformans [11],0.375
same,fractional inhibitory concentration index (FICI),Cryptococcus neoformans [12],0.156
same,fractional inhibitory concentration index (FICI),Cryptococcus neoformans [13],0.375
same,fractional inhibitory concentration index (FICI),[14],0.313
same,Activity,Cryptococcus neoformans [15],4.8 log10CFU/g
same,survival at 10 mg/kg,Cryptococcus neoformans [16],65%
same,survival at 10 mg/kg,[17],70%
CCCCNC(=O)c1c(O)c2sccc2n(Cc2ccccc2)c1=O,MIC,Cryptococcus gattii [18],0.0625 µg/mL
same,MIC,Cryptococcus neoformans [19],0.125 µg/mL
same,MIC,Cryptococcus neoformans [20],0.0313 µg/mL
same,MIC,Cryptococcus neoformans [21],0.0625 µg/mL
same,MIC,Cryptococcus neoformans [22],0.0625 µg/mL
same,MIC,Cryptococcus neoformans [23],0.0156 µg/mL
same,MIC,Cryptococcus neoformans [24],0.125 µg/mL
same,MIC,[25],0.125 µg/mL
same,fractional inhibitory concentration index (FICI),Cryptococcus neoformans [26],0.375
same,fractional inhibitory concentration index (FICI),[27],0.188
same,fractional inhibitory concentration index (FICI),[28],0.25
same,fractional inhibitory concentration index (FICI),Cryptococcus neoformans [29],0.313
same,fractional inhibitory concentration index (FICI),[30],0.313
same,Activity,Cryptococcus neoformans [31],46.8%
same,survival at 10 mg/kg,[32],70%
same,Vdss,[33],7.12 L/kg
same,Tmax,[34],3.17 min
same,selectivity ratio,[35],> 256
